Our source for the EC50 values is PubChem BioAssay AID1605 (NINDS Approved Drug Screening Program, 2009).

The structures appear in SMILES notation.

For the assay, the system named is Cells expressing FALS mutant SOD1, cell death protection. The assay is described as follows: protection against FALS mutant SOD1 cell death, familial ALS SOD1 mutant (AID 1605).
Take `O=[N+]([O-])c1cc([As](=O)(O)O)ccc1O`: the EC50 came to 71.9 µM.

`NC(=O)NC1NC(=O)NC1=O` (configuration not stated): the EC50 worked out at 0.0224 µM.

For `CN1C(=O)CN=C(c2ccccc2)c2cc(Cl)ccc21`, the EC50 was 118 µM.

As to `Cc1cc(C2CCCCC2)n(O)c(=O)c1`, the EC50 came to 30.9 µM.

`COc1cc(C)c2c(=O)cc(-c3ccccc3)oc2c1` yielded an EC50 of 45.8 µM.

The molecule `CCC(=O)c1c(O)cc(O)cc1O` returned an EC50 of 157 µM.

`CN[C@@H]1[C@H](O)[C@H](NC)[C@H]2O[C@@]3(O)C(=O)C[C@@H](C)O[C@H]3OC2[C@H]1O` (some centres not stated) gave an EC50 of 0.0222 µM.

Consider `COc1ccc2[nH]cc(CCNC(C)=O)c2c1`, for which the 50% effective concentration (EC50) was found to be 178 µM.

`NCCC(O)C(=O)N[C@@H]1C[C@H](N)[C@@H](O[C@H]2O[C@H](CN)[C@@H](O)[C@H](O)[C@H]2N)[C@H](OC2O[C@H](CO)[C@H](O)[C@H]2O)[C@H]1O` (some centres not stated): the EC50 was found to be 0.2 µM.

The molecule `O=C(O)CCC(=O)OC[C@@H](NC(=O)C(Cl)Cl)[C@H](O)c1ccc([N+](=O)[O-])cc1` gave an EC50 of 1.1 µM.

For the molecule `CC(NC(=O)C(NC(=O)OCc1ccccc1)C(C)C)C(=O)NC(CC(=O)O)C(=O)OC(F)F` (configuration not stated), the EC50 was 916 µM.

`CCCC(C)C1(CC)C(=O)N=C(S)NC1=O` (configuration not stated) gave an EC50 of 29.9 µM.

`O=C1O[C@@H](CO)[C@H](O)[C@@H](O)[C@@H]1O`: the EC50 was 9.33 µM.

As for `CCCC(=O)Nc1ccc(OCC(O)CNC(C)C)c(C(C)=O)c1` (configuration not stated), the EC50 is 48.8 µM.

`CC(N)Cc1ccc2c(c1)OCO2` (configuration not stated) registered an EC50 of 2120 µM.

`CC[C@@H](CO)NC(=O)[C@@H]1C=C2c3cccc4[nH]cc(c34)C[C@H]2N(C)C1` came in with an EC50 of 2890 µM.

`CN(C)c1ccc(O)c2c1C[C@H]1C[C@H]3[C@H](N(C)C)C(=O)C(C(N)=O)=C(O)[C@@]3(O)C(=O)C1=C2O` showed an EC50 of 14.4 µM.

On to `Cc1ccc(C(=O)C(C)CN2CCCCC2)cc1` (configuration not stated), for which the EC50 came out at 19.1 µM.

The molecule `CC(C)CC1NC(=O)CNC1=O` (configuration not stated) registered an EC50 of 0.0222 µM.

As to `CCC1(c2ccccc2)C(=O)NCNC1=O`, the EC50 is 741 µM.

As for `C[C@]12C=CC(=O)C=C1CCC1C2C(=O)C[C@@]2(C)C1CC[C@]2(O)C(=O)CO` (some centres not stated), the EC50 amounted to 2610 µM.

Turning to `O=c1cc(-c2ccccc2)oc2cc(O)cc(O)c12`, the EC50 turned out to be 6.47 µM.

Regarding `COC(=O)/C(=C1\OC(=O)C(c2ccccc2)C1=O)c1ccccc1` (configuration not stated), the EC50 is 3940 µM.

Turning to `C1CNCCN1`, the EC50 turned out to be 7130 µM.

In the case of `Nc1nc2ncc(CNc3ccc(C(=O)N[C@@H](CCC(=O)O)C(=O)O)cc3)nc2c(=O)[nH]1`, the EC50 is 785 µM.

The molecule `CCn1cc(C(=O)O)c(=O)c2cc3c(cc21)OCO3` had an EC50 of 2.38 µM.

Take `NCC(CC(=O)O)c1ccc(Cl)cc1` (configuration not stated): the concentration giving a half-maximal response (EC50) came out at 0.38 µM.

Take `O=C(OCC(O)CO)c1ccccc1Nc1ccnc2cc(Cl)ccc12` (configuration not stated): the 50% effective concentration (EC50) worked out at 3200 µM.

The molecule `CN1CC[C@]23c4c5ccc(O)c4O[C@H]2C(=O)CCC3[C@H]1C5` (some centres not stated) had an EC50 of 3410 µM.

Take `CC[C@@H]1C(=O)OC[C@@H]1Cc1cncn1C`: the EC50 is 3060 µM.

`CC(CCc1ccccc1)NC(C)C(O)c1ccc(O)cc1` (configuration not stated) showed an EC50 of 76.9 µM.

In turn, `C[C@H]1C(=O)O[C@@H]2CCN3CC=C(COC(=O)[C@](C)(O)[C@]1(C)O)[C@H]23` displayed an EC50 of 239 µM.

For the molecule `CC/C(=C(/CC)c1ccc(O)cc1)c1ccc(O)cc1`, the 50% effective concentration (EC50) worked out at 0.0327 µM.

On to `Oc1cc(O)c2c(c1)O[C@H](c1ccc(O)c(O)c1)[C@@H](O)C2`, for which the EC50 turned out to be 73.1 µM.

Take `NC[C@H]1O[C@H](O[C@H]2C(O[C@@H]3O[C@H](CO)[C@@H](O)[C@H]3O)[C@@H](O)[C@H](N)C[C@@H]2N)[C@H](N)[C@@H](O)[C@@H]1O` (some centres not stated): the EC50 is 5790 µM.

In turn, `CN(C)/N=N/c1nc[nH]c1C(N)=O` yielded an EC50 of 82 µM.

As to `COC(=O)C1=C(C)NC(C)=C(C(=O)OC)C1c1ccccc1[N+](=O)[O-]`, the EC50 was found to be 28.9 µM.

A word on the EC50: it is the concentration at which the effect is half-maximal. A low value points to an effect from little substance.
